Experimental data reported in US6528272B2 (priority 1997, dated 2003).

Molecular target: SEB (Staphylococcus aureus, UniProt P01552)
Format: binding

Sequence of SEB (P01552 28-266 limits assumed): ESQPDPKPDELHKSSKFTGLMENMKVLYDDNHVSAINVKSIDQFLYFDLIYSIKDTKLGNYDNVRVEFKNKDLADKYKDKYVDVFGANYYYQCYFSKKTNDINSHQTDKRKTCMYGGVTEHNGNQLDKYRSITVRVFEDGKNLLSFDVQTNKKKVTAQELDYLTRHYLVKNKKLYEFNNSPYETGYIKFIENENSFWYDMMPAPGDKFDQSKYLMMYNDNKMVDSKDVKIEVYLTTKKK

Substance | binding of SEB to glycosphingolipid
digalactosylceramide [diGalCer] | strong binding
galactosylceramide [GalCer] | did not significantly bind
glucosylceramide [GlcCer] | did not significantly bind
lactosylceramide [LacCer] | did not significantly bind
